A value given as a limit tells only on which side of the number the result lay.

Test [1] concerns Human immunodeficiency virus 1. Description: Antiviral activity against HIV1. Type of test: functional, organism-based.
Another test relates to HEK293. Description: Cytotoxicity against HEK293T cells. Type of test: functional. The following applies: Homo sapiens.
The test system of test [2] is Human immunodeficiency virus 1. Description: Antiviral activity against HIV1 Y181H mutant. Type of test: functional, organism-based.
The subject of test [3] is Human immunodeficiency virus 1. As to the kind of experiment: Antiviral activity against HIV1 V106A mutant. The class given is functional, organism-based.
Test [4] has as its system Human immunodeficiency virus 1. Description: Antiviral activity against HIV1 L100I mutant. Type of test: functional, organism-based.
The subject of test [5] is Human immunodeficiency virus 1. Description: Antiviral activity against HIV1 E138K mutant. The class given is functional, organism-based.
Test [6] relates to Human immunodeficiency virus 1. As to the kind of experiment: Antiviral activity against HIV1 Y188L mutant. Type of test: functional, organism-based.
In test [7] the test system is Human immunodeficiency virus 1. Description: Antiviral activity against HIV1 I135V mutant. Type of test: functional, organism-based.
Test [8] concerns Human immunodeficiency virus 1. Description: Antiviral activity against HIV1 K103N mutant. Type of test: functional, organism-based.
Test [9] relates to Human immunodeficiency virus 1. As to the kind of experiment: Antiviral activity against HIV1 Y181C mutant. The class given is functional, organism-based.
The subject of test [10] is Human immunodeficiency virus 1. Description: Antiviral activity against HIV1 Y181S mutant. Type of test: functional, organism-based.
Test [11] relates to Human immunodeficiency virus 1. Description: Antiviral activity against HIV1 V179E mutant. Type of test: functional, organism-based.
Test [12] has as its system Human immunodeficiency virus 1. Description: Antiviral activity against HIV1 F227L mutant. The class given is functional, organism-based.

`CCCCC12CC1(C(=O)Nc1ccc(C(=O)O)cc1)C(=O)Nc1ccc(Cl)cc12` (centres undefined): the concentration for a half-maximal effect (EC50) in test [1] was greater than 10000 nM. The same molecule had a CC50 in the test on HEK293 greater than 10000 nM.
In [1], `CCCCC12CC1(C(=O)Nc1ccncc1)C(=O)Nc1ccc(Cl)cc12` (centres undefined) showed an EC50 of 8260 nM. In the test on HEK293, this molecule displayed a 50% cytotoxic concentration (CC50) greater than 10000 nM.
The molecule `CCCCC12CC1(CO)C(=O)Nc1ccc(Cl)cc12` (centres undefined) came in with a concentration for a half-maximal effect (EC50) in test [1] of 743 nM. In the test on HEK293, the CC50 was greater than 10000 nM.
In [1], `CCCCC1(C)c2cc(Cl)ccc2NC(=O)C1C(=O)OCC` (centres undefined) showed an EC50 of 1400 nM. Further, the CC50 in the test with HEK293 was greater than 10000 nM.
`CCCCC12CC1(C(=O)N(C)CC)C(=O)Nc1ccc(Cl)cc12` (centres undefined) yielded a concentration for a half-maximal effect (EC50) in test [1] greater than 10000 nM. This molecule gave a half-maximal cytotoxic concentration (CC50) in the test on HEK293 greater than 10000 nM.
In turn, `CCOC(=O)C12CC1(C(C)C)c1cc(Cl)ccc1NC2=O` (centres undefined) gave an EC50 in [1] greater than 10000 nM. The same molecule showed a half-maximal cytotoxic concentration (CC50) in the test on HEK293 greater than 10000 nM.
In test [1], `CCCCC(=O)C12CC1(CCCC)c1cc(Cl)ccc1NC2=O` (centres undefined) returned an EC50 of 6300 nM. The molecule also displayed a CC50 in the test on HEK293 greater than 10000 nM.
On to `CCCCC12CC1(C(=O)NCCC(=O)O)C(=O)Nc1ccc(Cl)cc12` (centres undefined), for which, in [1], the EC50 is greater than 10000 nM. This molecule also showed a 50% cytotoxic concentration (CC50) in the test with HEK293 greater than 10000 nM.
`CCCCC12CC1(C(=O)Nc1ccc(C(N)=O)cc1)C(=O)Nc1ccc(Cl)cc12` (centres undefined) had an EC50 in test [1] of 4550 nM. The cytotoxic concentration (CC50) in the test with HEK293 was greater than 10000 nM.
For the molecule `CCCC12CC1(C(=O)OCC)C(=O)Nc1ccc(Cl)cc12` (centres undefined), the EC50 in test [1] was 45 nM; in [2] it was 210 nM; in [3], 1010 nM; in [4], 41 nM; in test [5], 132 nM; in test [6], greater than 10000 nM. Also, the 50% effective concentration (EC50) is 97 nM in test [7]; greater than 10000 nM in [8]; greater than 10000 nM in [9]; 1210 nM in [10]; 1890 nM in [11]; 26 nM in [12]. The molecule also displayed a CC50 in the test with HEK293 greater than 10000 nM.
`CCCCC12CC1(C(=O)Nc1cccc(C#N)c1)C(=O)Nc1ccc(Cl)cc12` (centres undefined) returned an EC50 in test [1] of 160 nM. In the test on HEK293, this molecule yielded a 50% cytotoxic concentration (CC50) greater than 10000 nM.
In turn, `CCOC(=O)C12CC1(CCc1ccccc1)c1cc(Cl)ccc1NC2=O` (centres undefined) registered an EC50 in [1] of 221 nM. The molecule also gave a CC50 with HEK293 greater than 10000 nM.
In turn, `CCOC(=O)C12CC1(C1CCCC1)c1cc(Cl)ccc1NC2=O` (centres undefined) registered a half-maximal effective concentration (EC50) in test [1] of 3250 nM. Also, the CC50 in the test with HEK293 is greater than 10000 nM.
Consider `CCCCC12CC1(C(=O)NCC)C(=O)Nc1ccc(Cl)cc12` (centres undefined), for which the EC50 in [1] amounted to 747 nM. Further, the cytotoxic concentration (CC50) in the test with HEK293 is greater than 10000 nM.
In test [1], `CCOC(=O)C12CC1(Cc1ccccc1)c1cc(Cl)ccc1NC2=O` (centres undefined) yielded an EC50 greater than 10000 nM. This molecule also gave a CC50 with HEK293 greater than 10000 nM.
On to `C=CCNC(=O)C12CC1(CCCC)c1cc(Cl)ccc1NC2=O` (centres undefined), for which the EC50 in [1] stood at 489 nM. In the test with HEK293, this molecule had a CC50 greater than 10000 nM.
`CCOC(=O)C12CC1(CC)c1cc(Cl)ccc1NC2=O` (centres undefined) gave an EC50 in test [1] of 5040 nM. In the test on HEK293, this molecule registered a CC50 greater than 10000 nM.
Taken in the same sequence, the figures for `CCCCC12CC1(C(=O)CCC)C(=O)Nc1ccc(Cl)cc12` (centres undefined) were 265 nM and greater than 10000 nM.
Taken in the same sequence, the figures for `CCCCC12CC1(C#N)C(=O)Nc1ccc(Cl)cc12` (centres undefined) were 197 nM and greater than 10000 nM.
`CCCCC12CC1(C(=O)Oc1ccc(C#N)cc1)C(=O)Nc1ccc(Cl)cc12` (centres undefined) had a half-maximal effective concentration (EC50) in test [1] of 1100 nM. In the test on HEK293, this molecule returned a CC50 greater than 10000 nM.
Taken in the same sequence, the figures for `CCOC(=O)C12CC1(C)c1cc(Cl)ccc1NC2=O` (centres undefined) were greater than 10000 nM and greater than 10000 nM.
`CCCCC12CC1(C(=O)OCCC#N)C(=O)Nc1ccc(Cl)cc12` (centres undefined) showed a 50% effective concentration (EC50) in test [1] of 113 nM. In the test with HEK293, this molecule came in with a CC50 greater than 10000 nM.
Consider `CCCCC12CC1(C(=O)Nc1ccccn1)C(=O)Nc1ccc(Cl)cc12` (centres undefined), for which the EC50 in test [1] stood at 2700 nM. The same molecule registered a CC50 in the test on HEK293 greater than 10000 nM.
`CCCCC12CC1(C(=O)CC1CC1)C(=O)Nc1ccc(Cl)cc12` (centres undefined): the concentration for a half-maximal effect (EC50) in test [1] came out at 5690 nM. The molecule further gave a CC50 in the test on HEK293 greater than 10000 nM.
The corresponding values for `CCCCC12CC1(C(=O)Nc1ccccc1C(N)=O)C(=O)Nc1ccc(Cl)cc12` (centres undefined) are 1330 nM and greater than 10000 nM.
Turning to `CCCCC12CC1(C(=O)NC(C)C)C(=O)Nc1ccc(Cl)cc12` (centres undefined), it took 2780 nM to reach a half-maximal effect in test [1] (EC50). In the test with HEK293, this molecule had a CC50 greater than 10000 nM.
For the molecule `CCCCC12CC1(C(=O)Oc1ccccc1)C(=O)Nc1ccc(Cl)cc12` (centres undefined), in test [1], the EC50 is greater than 10000 nM. Further, the 50% cytotoxic concentration (CC50) with HEK293 is greater than 10000 nM.
`CCCCC12CC1(C(=O)OCC)C(=O)Nc1ccc(Cl)cc12` (centres undefined): the concentration giving a half-maximal response (EC50) in test [1] is 3 nM; in [2], 9 nM; in test [3] it was 279 nM; in test [4], 14 nM; in [5] it was 47 nM; in test [6], greater than 10000 nM. Further, the half-maximal effective concentration (EC50) came to 28 nM in test [7]; 884 nM in [8]; 1650 nM in test [9]; 684 nM in test [10]; 914 nM in [11]; 7 nM in test [12]. The molecule further gave a 50% cytotoxic concentration (CC50) in the test on HEK293 greater than 10000 nM.
Consider `CCOC(=O)C12CC1(c1ccc(-c3ccccc3)cc1)c1cc(Cl)ccc1NC2=O` (centres undefined), for which, in test [1], the half-maximal effective concentration (EC50) is greater than 10000 nM. In the test with HEK293, this molecule showed a CC50 greater than 10000 nM.
The molecule `CCOC(=O)C12CC1(C1CC1)c1cc(Cl)ccc1NC2=O` (centres undefined) registered a concentration giving a half-maximal response (EC50) in test [1] greater than 10000 nM. Moreover, the 50% cytotoxic concentration (CC50) with HEK293 was greater than 10000 nM.
In test [1], `CCCCC12CC1(C(=O)NCc1ccccc1)C(=O)Nc1ccc(Cl)cc12` (centres undefined) yielded an EC50 of 2820 nM. Moreover, in the test on HEK293, the CC50 was determined as 8820 nM.
In the case of `C=CCOCC12CC1(CCCC)c1cc(Cl)ccc1NC2=O` (centres undefined), the EC50 in test [1] came out at 240 nM. This molecule also had a CC50 with HEK293 greater than 10000 nM.
The molecule `CCOC(=O)C12CC1(C1CCCCC1)c1cc(Cl)ccc1NC2=O` (centres undefined) displayed an EC50 in test [1] greater than 10000 nM. This molecule returned a CC50 in the test on HEK293 greater than 10000 nM.
`CCCCC12CCC1(C(=O)OCC)C(=O)Nc1ccc(Cl)cc12` (centres undefined) gave an EC50 in [1] of 102 nM. Moreover, in the test with HEK293, the CC50 was greater than 10000 nM.
With `CCCCc1c(C(=O)OCC)c(O)nc2ccc(Cl)cc12`, the half-maximal effective concentration (EC50) in test [1] came out at 166 nM. The same molecule had a CC50 with HEK293 greater than 10000 nM.
On to `CCCCC12CC1(C(=O)N1CCCC1)C(=O)Nc1ccc(Cl)cc12` (centres undefined), for which the concentration giving a half-maximal response (EC50) in test [1] is greater than 10000 nM. The molecule further registered a CC50 in the test with HEK293 greater than 10000 nM.
Turning to `CCCCC12CC1(C(=O)N1CCC1)C(=O)Nc1ccc(Cl)cc12` (centres undefined), the half-maximal effective concentration (EC50) in test [1] is greater than 10000 nM. In the test with HEK293, this molecule registered a 50% cytotoxic concentration (CC50) greater than 10000 nM.
In turn, `CCCCC12CC1(C(=O)OCC=C(C)C)C(=O)Nc1ccc(Cl)cc12` (centres undefined) showed an EC50 in test [1] of 2360 nM. Besides, the CC50 in the test with HEK293 is greater than 10000 nM.
In test [1], `CCCCC12CC1(C(=O)Nc1ccccc1C#N)C(=O)Nc1ccc(Cl)cc12` (centres undefined) returned a concentration for a half-maximal effect (EC50) of 1710 nM. In the test with HEK293, this molecule displayed a CC50 of 6090 nM.
Take `O=C1Nc2ccc(Cl)cc2C(C#CC2CC2)(C(F)(F)F)O1` (single isomer, unassigned) [EFAVIRENZ]: the EC50 is 2 nM in test [2]; 4 nM in [3]; 2 nM in test [5]; 280 nM in [6]; 1 nM in [7]; 1 nM in [10]. In addition, the figures for the half-maximal effective concentration (EC50) in [11] and in test [12] were 6 nM and 1 nM, respectively. The CC50 in the test with HEK293 is greater than 10000 nM.
Turning to `Cc1ccnc2c1NC(=O)c1cccnc1N2C1CC1` [NEVIRAPINE], the EC50 is 112 nM in test [2]; 8460 nM in test [3]; 31 nM in test [5]; greater than 10000 nM in [6]; 79 nM in [7]; greater than 10000 nM in test [9]. In addition, the half-maximal effective concentration (EC50) in [10] was 3000 nM; in test [11] it was 116 nM; in test [12] it was 148 nM. Besides, in the test on HEK293, the CC50 is greater than 10000 nM.

One may read the EC50 as the concentration at which the effect is half-maximal. The term CC50 denotes the concentration that lowers cell viability or growth by half. Read a high CC50 as lower toxicity to the cells.

For the origin of these results see ChEMBL document CHEMBL1146842, “Design, synthesis, and biological evaluations of novel quinolones as HIV-1 non-nucleoside reverse transcriptase inhibitors” (Bioorg Med Chem Lett, 2006).
